From ChEMBL document CHEMBL1909046, “DrugMatrix in vitro pharmacology data” come the findings set out here.

Test [1] has as its target Receptor tyrosine-protein kinase erbB-2 (Homo sapiens, UniProt P04626). As to the kind of experiment: biochemical. The class given is cell-based, Insect cells.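 Note: inhibition of HER2 kinase enzyme activity, measured with Poly(Glu:Tyr) as the phosphorylation substrate; in other assays of this panel Not Active means under 50% inhibition at 10 µM.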
The target in test [2] is Beta-2 adrenergic receptor (Homo sapiens, UniProt P07550). As to the kind of experiment: DRUGMATRIX: Adrenergic beta2 radioligand binding (ligand: [3H] CGP-12177). Type of test: cell membranes, CHO, Membrane. The settings on record: cho; Not Active = under 50% inhibition at 10 µM.
Test [3] deals with T1, 5-hydroxytryptamine receptor 1A (Rattus norvegicus, UniProt P19327).
T1 sequence (P19327 whole entry): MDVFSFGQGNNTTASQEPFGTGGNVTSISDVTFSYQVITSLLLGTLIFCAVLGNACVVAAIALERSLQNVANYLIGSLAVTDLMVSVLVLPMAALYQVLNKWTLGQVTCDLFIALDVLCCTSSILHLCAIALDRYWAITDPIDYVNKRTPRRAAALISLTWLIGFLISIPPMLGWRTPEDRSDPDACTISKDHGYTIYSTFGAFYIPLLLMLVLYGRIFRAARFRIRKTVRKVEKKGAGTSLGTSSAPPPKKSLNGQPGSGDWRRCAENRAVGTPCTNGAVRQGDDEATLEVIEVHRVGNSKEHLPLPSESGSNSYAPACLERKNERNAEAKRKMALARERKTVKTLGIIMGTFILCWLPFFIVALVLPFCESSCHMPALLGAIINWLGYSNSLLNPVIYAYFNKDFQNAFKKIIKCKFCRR
The class given is cell membranes, CHO-K1, Membrane. The conditions noted are these: cho-k1.

In test [4] the target is Melanocortin receptor 3 (Homo sapiens, UniProt P41968). The class given is cell membranes, HEK293, Membrane. The settings on record: hek293. Note: in other assays of this panel Not Active means under 50% inhibition at 10 µM.
For test [5], the target named is 5-hydroxytryptamine receptor 2B (Homo sapiens, UniProt P41595). The class given is cell membranes, CHO-K1, Membrane. Note: in other assays of this panel Not Active means under 50% inhibition at 10 µM.
Test [6] deals with T2, Polyunsaturated fatty acid lipoxygenase ALOX15 (Oryctolagus cuniculus, UniProt P12530).
T2 sequence (P12530 whole entry): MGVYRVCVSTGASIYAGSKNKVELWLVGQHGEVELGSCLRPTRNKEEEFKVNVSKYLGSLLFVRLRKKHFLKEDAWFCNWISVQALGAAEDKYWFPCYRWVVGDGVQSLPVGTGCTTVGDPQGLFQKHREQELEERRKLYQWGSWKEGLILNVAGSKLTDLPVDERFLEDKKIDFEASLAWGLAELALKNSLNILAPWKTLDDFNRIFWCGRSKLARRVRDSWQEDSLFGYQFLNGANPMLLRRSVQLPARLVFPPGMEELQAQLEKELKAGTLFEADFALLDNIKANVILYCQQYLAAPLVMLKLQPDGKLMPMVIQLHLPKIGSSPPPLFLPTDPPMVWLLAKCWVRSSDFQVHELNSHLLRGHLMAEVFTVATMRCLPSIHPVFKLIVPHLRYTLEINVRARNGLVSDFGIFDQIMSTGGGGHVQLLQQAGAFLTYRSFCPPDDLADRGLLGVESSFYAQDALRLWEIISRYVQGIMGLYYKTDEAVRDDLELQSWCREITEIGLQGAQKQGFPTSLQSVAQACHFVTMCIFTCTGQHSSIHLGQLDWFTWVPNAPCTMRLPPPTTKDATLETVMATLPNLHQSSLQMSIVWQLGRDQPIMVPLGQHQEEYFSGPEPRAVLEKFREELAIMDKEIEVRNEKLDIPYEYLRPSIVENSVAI
In words: biochemical. Type of test: tissue-based, Reticulocytes.

Chain of Melanocortin receptor 3 (P41968 whole entry): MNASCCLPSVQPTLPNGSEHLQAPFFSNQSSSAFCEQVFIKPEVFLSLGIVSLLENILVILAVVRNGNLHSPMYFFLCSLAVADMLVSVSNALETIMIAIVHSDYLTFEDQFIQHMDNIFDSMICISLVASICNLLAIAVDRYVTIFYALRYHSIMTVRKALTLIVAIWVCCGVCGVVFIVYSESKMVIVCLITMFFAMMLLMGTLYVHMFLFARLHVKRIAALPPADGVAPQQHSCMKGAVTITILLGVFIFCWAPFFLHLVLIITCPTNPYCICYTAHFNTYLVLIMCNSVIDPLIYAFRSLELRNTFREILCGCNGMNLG
Chain of 5-hydroxytryptamine receptor 2B (P41595 whole entry): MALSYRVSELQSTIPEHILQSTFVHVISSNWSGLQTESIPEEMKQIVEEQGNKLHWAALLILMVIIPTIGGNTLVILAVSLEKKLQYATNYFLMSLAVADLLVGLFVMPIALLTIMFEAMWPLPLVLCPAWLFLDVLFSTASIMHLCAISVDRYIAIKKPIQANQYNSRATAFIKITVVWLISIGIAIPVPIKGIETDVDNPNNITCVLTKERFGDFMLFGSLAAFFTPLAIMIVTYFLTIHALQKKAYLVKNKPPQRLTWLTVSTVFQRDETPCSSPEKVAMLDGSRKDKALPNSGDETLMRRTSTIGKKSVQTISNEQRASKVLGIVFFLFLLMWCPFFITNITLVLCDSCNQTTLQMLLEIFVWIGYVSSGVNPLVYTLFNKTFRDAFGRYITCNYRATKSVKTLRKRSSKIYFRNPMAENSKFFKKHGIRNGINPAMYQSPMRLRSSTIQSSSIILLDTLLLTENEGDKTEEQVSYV

Turning to `CC(C)(C)NC(=O)[C@H]1CC[C@H]2[C@@H]3CC[C@H]4NC(=O)C=C[C@]4(C)[C@H]3CC[C@]12C` [FINASTERIDE], the IC50 entry in test [1] (insect cells), in test [2], in test [3], in test [4], in test [5] (cho-k1) and in test [6] (reticulocytes) was “Not Active” in each case.

On to `CC(C)NNC(=O)c1ccncc1` [IPRONIAZID], for which the concentration for half-maximal inhibition (IC50) entry in test [1] (insect cells), in test [2], in test [3], in test [4], in test [5] (cho-k1) and in test [6] (reticulocytes) was “Not Active” throughout.

For GRAMICIDIN, the IC50 entry in test [1] (insect cells), in test [2], in test [3], in test [4], in test [5] (cho-k1) and in test [6] (reticulocytes) was “Not Active” each time. Also, the Ki result in test [1] (insect cells), in test [2], in test [3], in test [4], in test [5] (cho-k1) and in test [6] (reticulocytes) was “Not Active” in each case.

For `CC(=O)[C@@]1(O)CC[C@H]2[C@@H]3CCC4=CC(=O)CC[C@]4(C)[C@H]3CC[C@@]21C` [HYDROXYPROGESTERONE], the IC50 result in test [1] (insect cells), in test [2], in test [3], in test [4], in test [5] (cho-k1) and in test [6] (reticulocytes) was “Not Active” throughout.

`O=C(N/N=C/c1ccc([N+](=O)[O-])o1)c1cc([N+](=O)[O-])cc([N+](=O)[O-])c1O` [NIFURSOL]: the IC50 result in test [1] (insect cells), in test [2], in test [3], in test [4], in test [5] (cho-k1) and in test [6] (reticulocytes) was “Not Active” throughout.

Turning to `Oc1cccc(O)c1O` [PYROGALLOL], the IC50 result in test [1] (insect cells) was “Not Active”; in test [2], “Not Active”; in test [3], “Not Active”; in test [4] it was “Not Active”; in test [5] (cho-k1) it was “Not Active”; in test [6] (read-out: IC50) it was 2.11 µM.

As for `COc1cc2nc(N3CCN(C(=O)c4ccco4)CC3)nc(N)c2cc1OC` [PRAZOSIN], the IC50 result in test [1] (insect cells) was “Not Active”; in test [2], “Not Active”; in test [3] it was “Not Active”; in test [4], “Not Active”; in test [5] (read-out: IC50), 4.12 µM; in test [6] (reticulocytes), “Not Active”. Further, in test [5] (read-out: Ki), the Ki is 2.62 µM.

Turning to `NNc1nncc2ccccc12` [HYDRALAZINE], the IC50 entry in test [1] (insect cells) was “Not Active”; in test [2], “Not Active”; in test [3] it was “Not Active”; in test [4] it was “Not Active”; in test [5] (cho-k1), “Not Active”; in test [6] (read-out: IC50), 3.65 µM.

With `C[C@]12C=CC(=O)C=C1CC[C@@H]1[C@@H]2[C@@H](O)C[C@@]2(C)[C@H]1CC[C@]2(O)C(=O)CO` [PREDNISOLONE], the concentration for half-maximal inhibition (IC50) entry in test [1] (insect cells), in test [2], in test [3], in test [4], in test [5] (cho-k1) and in test [6] (reticulocytes) was “Not Active” each time.

For the molecule `NCCCC(O)(P(=O)(O)O)P(=O)(O)O` [ALENDRONIC ACID], the half-inhibitory concentration (IC50) entry in test [1] (insect cells), in test [2], in test [3], in test [4], in test [5] (cho-k1) and in test [6] (reticulocytes) was “Not Active” throughout.

Regarding `O=C1O[C@H]([C@@H](O)CO)C(O)=C1O` [ASCORBIC ACID], the half-inhibitory concentration (IC50) result in test [1] (insect cells), in test [2], in test [3], in test [4], in test [5] (cho-k1) and in test [6] (reticulocytes) was “Not Active” in each case.

As to `C[n+]1ccccc1/C=N/O.[Cl-]` [PRALIDOXIME CHLORIDE], the IC50 entry in test [1] (insect cells), in test [2], in test [3], in test [4], in test [5] (cho-k1) and in test [6] (reticulocytes) was “Not Active” in each case.

Turning to `COc1ccc2c3c1O[C@H]1C[C@@H](O)C=C[C@@]31CCN(C)C2` [GALANTAMINE], the IC50 entry in test [1] (insect cells), in test [2], in test [3], in test [4], in test [5] (cho-k1) and in test [6] (reticulocytes) was “Not Active” in each case.

As for `COC1=C(OC)C(=O)C(CCCCCCCCCCO)=C(C)C1=O` [IDEBENONE], the IC50 result in test [1] (insect cells), in test [2], in test [3], in test [4], in test [5] (cho-k1) and in test [6] (reticulocytes) was “Not Active” throughout.

As to `CCC1(CCC(C)C)C(=O)NC(=O)NC1=O` [AMOBARBITAL], the IC50 entry in test [1] (insect cells), in test [2], in test [3], in test [4], in test [5] (cho-k1) and in test [6] (reticulocytes) was “Not Active” in each case.

For the molecule `COc1ccc2[nH]cc(CCNC(C)=O)c2c1` [MELATONIN], the IC50 result in test [1] (insect cells), in test [2], in test [3], in test [4], in test [5] (cho-k1) and in test [6] (reticulocytes) was “Not Active” throughout.

For the molecule `O=C/C=C/c1ccccc1`, the half-inhibitory concentration (IC50) result in test [1] (insect cells), in test [2], in test [3], in test [4], in test [5] (cho-k1) and in test [6] (reticulocytes) was “Not Active” in each case.

On to `CN(C)CC[C@@H](c1ccc(Cl)cc1)c1ccccn1` [DEXCHLORPHENIRAMINE], for which the half-maximal inhibitory concentration (IC50) entry in test [1] (insect cells), in test [2], in test [3], in test [4], in test [5] (cho-k1) and in test [6] (reticulocytes) was “Not Active” in each case.

As to `COc1ccc2cc3[n+](cc2c1OC)CCc1cc2c(cc1-3)OCO2.[Cl-]` [BERBERINE CHLORIDE], the concentration for half-maximal inhibition (IC50) result in test [1] (insect cells) is “Not Active”; in test [2], “Not Active”; in test [3], “Not Active”; in test [4], “Not Active”; in test [5] (read-out: IC50), 3.44 µM; in test [6] (reticulocytes), “Not Active”. In addition, in test [5] (read-out: Ki), the Ki worked out at 2.19 µM.

Take `OC(CCCN1CCCCC1)(c1ccccc1)c1ccccc1` [DIPHENIDOL]: the IC50 result in test [1] (insect cells), in test [2], in test [3], in test [4], in test [5] (cho-k1) and in test [6] (reticulocytes) was “Not Active” in each case.

As to `CC(=O)O[C@H]1C(=O)[C@@]2(C)[C@H]([C@H](OC(=O)c3ccccc3)[C@]3(O)C[C@H](OC(=O)[C@H](O)[C@@H](NC(=O)c4ccccc4)c4ccccc4)C(C)=C1C3(C)C)[C@]1(OC(C)=O)CO[C@@H]1C[C@@H]2O` [PACLITAXEL], the concentration for half-maximal inhibition (IC50) was 11.1 µM in test [1] (read-out: IC50); “Not Active” in test [2]; “Not Active” in test [3]; “Not Active” in test [4]; “Not Active” in test [5] (cho-k1); “Not Active” in test [6] (reticulocytes).

Take `CC1(C)S[C@@H]2[C@H](NC(=O)[C@H](N)c3ccccc3)C(=O)N2[C@H]1C(=O)O` [AMPICILLIN]: the IC50 result in test [1] (insect cells), in test [2], in test [3], in test [4], in test [5] (cho-k1) and in test [6] (reticulocytes) was “Not Active” in each case.

As for `Cn1c(=O)c2c(ncn2CC(O)CO)n(C)c1=O` (configuration not stated) [DYPHYLLINE], the 50% inhibitory concentration (IC50) entry in test [1] (insect cells), in test [2], in test [3], in test [4], in test [5] (cho-k1) and in test [6] (reticulocytes) was “Not Active” each time.

Turning to `CN(C)[C@@H]1C(O)=C(C(N)=O)C(=O)[C@@]2(O)C(O)=C3C(=O)c4c(O)ccc(Cl)c4[C@@](C)(O)[C@H]3C[C@@H]12` [CHLORTETRACYCLINE], the IC50 entry in test [1] (insect cells), in test [2], in test [3], in test [4], in test [5] (cho-k1) and in test [6] (reticulocytes) was “Not Active” each time.
